Read-outs that look alike come from different tables or passages of the source. *1 amine or outer side, *2 acyl side, *3 side chain or, on linkers, in order; H or OH if unused. Where a SMILES comes first, the peptide text is derived from it. Bridges are numbered along the chain shown (N, C = ends). [ ]: non-standard residue; d: D form. The star is where a group is joined. pTerphenylCO(4''-OnC5H11) = CCCCCOc1ccc(-c2ccc(-c3ccc(C(=O)*)cc3)cc2)cc1; Orn(4R-OH,5R-OH) = O=C([C@H](C[C@@H](O)[C@@H](O)N[*:3])N[*:1])[*:2]; hTyr(3S-OH,4S-OH) = N[C@H](C(=O)O)[C@H](O)[C@@H](O)c1ccc(O)cc1; Pro(3S-OH,4S-Me) = C[C@H]1CN[C@H](C(=O)O)[C@H]1O; Hyp = O=C(O)[C@@H]1C[C@@H](O)CN1
Key:
[1] = test system: P. falciparum 3D7 parasites; assay: P. falciparum growth inhibition assay, 1-cycle (72 h treatment), SYBR DNA staining (library screen at 2 μg/mL and dose-response); format: cell-based, Plasmodium falciparum; settings: for activity at 2 µg/mL: Plasmodium falciparum
[2] = test system: P. falciparum 3D7 parasites; assay: P. falciparum growth inhibition assay, 2-cycle (120 h treatment), delayed-death screen and dose-response; format: cell-based, Plasmodium falciparum; settings: 120 h; for activity at 2 µg/mL: Plasmodium falciparum
[3] = test system: T. gondii RH strain (RH-Tub-eYFP) tachyzoites; assay: microbe, parasite or virus in culture; format: cell-based, Toxoplasma gondii
[4] = 3D7, library screen at 2 μg/mL, 72 h, % growth, replicate 1, read-out: Pf_72h_%Growth_Rep1
[5] = 3D7, library screen at 2 μg/mL, 72 h, % growth, replicate 2, read-out: Pf_72h_%Growth_Rep2
[6] = 3D7, library screen at 2 μg/mL, % growth, replicate 1, read-out: Pf_120h_%Growth_Rep1
[7] = 3D7, library screen at 2 μg/mL, % growth, replicate 2, read-out: Pf_120h_%Growth_Rep2
[8] = library screen at 2 μg/mL, 72 h, % growth, replicate 1
[9] = library screen at 2 μg/mL, 72 h, % growth, replicate 2
[10] = library screen at 2 μg/mL, % growth, replicate 1
[11] = library screen at 2 μg/mL, % growth, replicate 2
[12] = Toxoplasma gondii, 72 h, library screen at 2 μg/mL, 72 h, % growth, replicate 1; read-out: Tg_72h_%Growth_Rep1
[13] = Toxoplasma gondii, 72 h, library screen at 2 μg/mL, 72 h, % growth, replicate 2; read-out: Tg_72h_%Growth_Rep2
[14] = active against the parasite at 2 μg/mL, no anti-tumour (NS-1) or cytotoxic (fibroblast) activity at 5 μg/mL

CCCCCOc1ccc(-c2ccc(-c3ccc(C(=O)N[C@H]4C[C@@H](O)[C@@H](O)NC(=O)[C@@H]5[C@@H](O)[C@@H](C)CN5C(=O)[C@H]([C@@H](C)O)NC(=O)[C@H]([C@H](O)[C@@H](O)c5ccc(O)cc5)NC(=O)[C@@H]5C[C@@H](O)CN5C(=O)[C@H]([C@@H](C)O)NC4=O)cc3)cc2)cc1 [Anidulafungin] ({pTerphenylCO(4''-OnC5H11)}-[Orn(4R-OH,5R-OH)]T[Hyp][hTyr(3S-OH,4S-OH)]T[Pro(3S-OH,4S-Me)]; lactam 1-C)
activity at 2 µg/mL [1, 4]: 93.1%
activity at 2 µg/mL [1, 5]: 85.8%
activity at 2 µg/mL [2, 6]: 162%
activity at 2 µg/mL [2, 7]: 103%
percent parasite growth at 2 µg/mL ([3]; Toxoplasma gondii; library screen at 2 μg/mL, 72 h, % growth, replicate 1; read-out: Tg_72h_%Growth_Rep1): 88.8%
percent parasite growth at 2 µg/mL ([3]; Toxoplasma gondii; library screen at 2 μg/mL, 72 h, % growth, replicate 2; read-out: Tg_72h_%Growth_Rep2): 95.8%

CC(=O)OC[C@]12[C@H](O)C(=O)C(C)=C[C@H]1O[C@@H]1[C@H](O)C[C@@]2(C)[C@]12CO2 [Acetyldeoxynivalenol, 15-]
Pf_72h_%Growth_Rep1 [1, 8]: 5.76%
Pf_72h_%Growth_Rep2 [1, 9]: -0.64%
Pf_120h_%Growth_Rep1 [2, 10]: 6.22%
Pf_120h_%Growth_Rep2 [2, 11]: 4.98%
Tg_72h_%Growth_Rep1 [3, 8]: -2.45%
Tg_72h_%Growth_Rep2 [3, 9]: -0.58%

C=CC(C)(C)[C@@]12C[C@H]3C(=O)N4[C@@H](C[C@@]5(C(C)(C)C=C)c6ccccc6N[C@@H]45)C(=O)N3[C@@H]1Nc1ccccc12 [Amauromine]
activity at 2 µg/mL ([1]; 3D7, 72 h, library screen at 2 μg/mL, 72 h, % growth, replicate 1, read-out: Pf_72h_%Growth_Rep1): 3.52%
activity at 2 µg/mL ([1]; 3D7, 72 h, library screen at 2 μg/mL, 72 h, % growth, replicate 2, read-out: Pf_72h_%Growth_Rep2): 3.82%
activity at 2 µg/mL ([2]; 3D7, 120 h, library screen at 2 μg/mL, % growth, replicate 1, read-out: Pf_120h_%Growth_Rep1): 7.96%
activity at 2 µg/mL ([2]; 3D7, 120 h, library screen at 2 μg/mL, % growth, replicate 2, read-out: Pf_120h_%Growth_Rep2): 0.67%
percent parasite growth at 2 µg/mL [3, 12]: 139%
percent parasite growth at 2 µg/mL [3, 13]: 104%

C=C1[C@@H](C)[C@H]2[C@H](Cc3ccccc3)NC(=O)[C@]23[C@H](O)/C=C/[C@](C)(O)C[C@@H](C)C/C=C/[C@H]3[C@@H]1O [cytochalasin J]
Pf_72h_%Growth_Rep1 ([1]; P. falciparum, 72 h, screen at 2 μg/mL, replicate 1): 6.03%
Pf_72h_%Growth_Rep2 ([1]; P. falciparum, 72 h, screen at 2 μg/mL, replicate 2): 6.00%
selectivity for P. falciparum in the screens [1, 14]: active selectively against P. falciparum and T. gondii
Pf_120h_%Growth_Rep1 ([2]; P. falciparum, screen at 2 μg/mL, replicate 1): 0.52%
Pf_120h_%Growth_Rep2 ([2]; P. falciparum, screen at 2 μg/mL, replicate 2): -0.13%
Tg_72h_%Growth_Rep1 ([3]; T. gondii, 72 h, screen at 2 μg/mL, replicate 1): 4.83%
Tg_72h_%Growth_Rep2 ([3]; T. gondii, 72 h, screen at 2 μg/mL, replicate 2): 6.80%
selectivity for T. gondii in the screens [3, 14]: active selectively against P. falciparum and T. gondii

CN(C)[C@@H]1C(=O)C(C(N)=O)=C(O)[C@@]2(O)C(=O)C3=C(O)c4c(O)cccc4C[C@H]3C[C@@H]12.Cl [Sancycline hydrochloride]
Pf_72h_%Growth_Rep1 ([1]; P. falciparum, 72 h, parasite screen 2 μg/mL, % growth, replicate 1): 1.26%
Pf_72h_%Growth_Rep2 ([1]; P. falciparum, 72 h, parasite screen 2 μg/mL, % growth, replicate 2): 7.80%
Pf_120h_%Growth_Rep1 ([2]; P. falciparum, parasite screen 2 μg/mL, % growth, replicate 1): 6.81%
Pf_120h_%Growth_Rep2 ([2]; P. falciparum, parasite screen 2 μg/mL, % growth, replicate 2): 7.98%
Tg_72h_%Growth_Rep1 ([3]; T. gondii, 72 h, parasite screen 2 μg/mL, % growth, replicate 1): 58.51%
Tg_72h_%Growth_Rep2 ([3]; T. gondii, 72 h, parasite screen 2 μg/mL, % growth, replicate 2): 60.28%

C[C@@H]1C[C@@H]([C@H](O)CC2CC(=O)NC(=O)C2)C(=O)[C@@H](C)C1 [cycloheximide, reference compound]
activity in the screen against P. falciparum ([1]; 2 μg/mL, 72 h, active = ≥80 % growth inhibition): active
activity at 2 µg/mL ([1]; 3D7, P. falciparum, 72 h, screen at 2 μg/mL, replicate 1, read-out: Pf_72h_%Growth_Rep1): 1.07%
activity at 2 µg/mL ([1]; 3D7, P. falciparum, 72 h, screen at 2 μg/mL, replicate 2, read-out: Pf_72h_%Growth_Rep2): 4.34%
activity at 2 µg/mL ([2]; 3D7, P. falciparum, screen at 2 μg/mL, replicate 1, read-out: Pf_120h_%Growth_Rep1): 1.73%
activity at 2 µg/mL ([2]; 3D7, P. falciparum, screen at 2 μg/mL, replicate 2, read-out: Pf_120h_%Growth_Rep2): 0.69%
percent parasite growth at 2 µg/mL ([3]; Toxoplasma gondii; T. gondii, 72 h, screen at 2 μg/mL, replicate 1; read-out: Tg_72h_%Growth_Rep1): 7.84%
percent parasite growth at 2 µg/mL ([3]; Toxoplasma gondii; T. gondii, 72 h, screen at 2 μg/mL, replicate 2; read-out: Tg_72h_%Growth_Rep2): 1.95%

CCCC[C@@H](C)[C@@H](OC(=O)C[C@@H](CC(=O)O)C(=O)O)[C@H](C[C@@H](C)CCCCCC[C@@H](O)C[C@H](O)[C@H](C)N)OC(=O)C[C@@H](CC(=O)O)C(=O)O [Fumonisin B2]
Pf_72h_%Growth_Rep1 [1, 8]: 86.29%
Pf_72h_%Growth_Rep2 [1, 9]: 114.27%
Pf_120h_%Growth_Rep1 [2, 10]: 88.54%
Pf_120h_%Growth_Rep2 [2, 11]: 108.75%
Tg_72h_%Growth_Rep1 [3, 8]: 118.32%
Tg_72h_%Growth_Rep2 [3, 9]: 95.97%

COc1cc(C)c(C(=O)Oc2cc(C)c(C(=O)O)c(O)c2)c(O)c1 [Evernic acid]
activity at 2 µg/mL [1, 4]: 86.3%
activity at 2 µg/mL [1, 5]: 86.5%
activity at 2 µg/mL [2, 6]: 97.5%
activity at 2 µg/mL [2, 7]: 94.9%
percent parasite growth at 2 µg/mL [3, 12]: 133%
percent parasite growth at 2 µg/mL [3, 13]: 102%

Reference: publication PMC12396409, “Screening and hit evaluation of a microbial metabolite library against the pathogenic Plasmodium falciparum and Toxoplasma gondii parasites” (International Journal for Parasitology: Drugs and Drug …, 2025)
